Data set [1] concerns newly transformed schistosomula (NTS). The data set is described as follows: NTS viability phenotypic screening, 72 h. The conditions noted are these: for IC50: Schistosoma mansoni, read-out: IC50 (NTS viability).
Experimental: (§4) For NTS and adult worms, transparent flat-bottom 96- and 24-well plates were used, respectively (Sarstedt, Switzerland). For juvenile worms, 48-well plates were used with 3–6 worms per plate and RPMI medium with 5% FCS and 1% penicillin/streptomycin. Compounds were initially tested at 20 and 10 μM in triplicate on NTS and repeated once; each well contained 30–40 NTS. Phenotypic reference points such as motility, morphology, and granularity were used to score incubated parasites’ overall viability (scores from 0 to 3). […] Identified hits from the NTS screening were tested on adult worms. […] The experiment was conducted in duplicate and repeated; standard deviations were calculated from two wells. […] For all in vitro assays, negative controls (DMSO at the highest tested concentration) were included.
Data set [2] has as its system human recombinant LSD1-CoREST enzymatic complex. To be noted: Table S1, cited from earlier work.
Data set [3] has as its system S. mansoni juvenile forms. The data set is described as follows: Speed-of-action assay in juvenile forms. It counts as cell-based, Schistosoma mansoni. To be noted: for IC50: Schistosoma mansoni, read-out: IC50 (speed of action, juvenile forms); for Percentage of effect: juvenile forms. The text has this:
(§1) To better characterize a selection of our LSD1i in vitro, we assessed the onset of their action, defined as the time required for an observable antischistosomal effect. […] For detailed percentages of activity at each time point, refer to the Supporting Information (Tables S2 and S3 in Supporting Information).

Data set [4] in a line: MTT cytotoxicity in MRC-5 cells. It counts as cell-based. The conditions noted are these: human, MRC-5 lung diploid fibroblast cells; for viability at 72 h, 5 µM / viability at 72 h, 10 µM / viability at 72 h, 25 µM / viability at 72 h, 50 µM: read-out: percentage of viability, 72 h; for IC50 at 72 h: read-out: IC50 (cell viability). How it is done: (§2) The MTT method was used to evaluate cell viability after 72 h of treatment.
(§3) Human commercial lung diploid fibroblasts (MRC-5), and diploid retinal epithelium cells (RPE) were obtained from the American Type Culture Collection (ATCC) and kindly provided by Dr Francesca Degrassi (CNR IBPM) and maintained in minimal essential medium or DMEM-F12 medium supplemented with fetal calf serum, antibiotics, and nonessential amino acids. Cells were grown at 37 °C, in a humidified atmosphere, with 5% CO2. For experiments, cells were seeded in 200 μL of complete in each well of a 96-well microtiter plate. After 24 h, compounds were added at 5, 10, 25, and 50 μM for 72 h in sextuplicate. MTT was added (0.5 mg/mL), incubated for 4 h at 37 °C, and dissolved in 200 μL of isopropyl alcohol. Absorbance was measured at 570 nm (ELISA reader, DASIT), and cell viability was calculated as viability=(ODoftreatedcells/ODofcontrolcells)×100

Data set [5] can be described thus: MTT cytotoxicity in RPE cells. The conditions noted are these: human, retinal pigment epithelial (RPE) cells; for viability at 72 h, 5 µM / viability at 72 h, 10 µM / viability at 72 h, 25 µM / viability at 72 h, 50 µM: read-out: percentage of viability, 72 h; for IC50 at 72 h: read-out: IC50 (cell viability). It counts as cell-based. As to the method: as §2, §3

The subject of data set [6] is adult worms. The data set is described as follows: Adult worm viability phenotypic assay, 72 h. The conditions noted are these: Schistosoma mansoni, read-out: IC50 (adult worm viability).
Experimental: The life cycle is maintained at the Swiss TPH as described previously. Cercariae were obtained from infected snails by exposing them to a strong light source for 3–4 h in pond water.
as §4
Another data set relates to NTS. The data set can be described thus: Speed-of-action assay in NTS. To be noted: for Percentage of effect: NTS; for IC50: Schistosoma mansoni, read-out: IC50 (speed of action, NTS). In kind it is cell-based, Schistosoma mansoni.
Excerpt: as §1

The subject of data set [7] is adult worms. The data set is described as follows: Pairing and egg laying of adult worms. In kind it is cell-based, Schistosoma mansoni. The conditions noted are these: for eggs' number: 20 μM. How it is done:
Selected compounds 2, 15, 18, and 19 were tested on adult worms to evaluate their effects on pairing and egg laying.

Where [8] appears, read: ref 4 (SI: Rodriguez et al., MedChemComm 2015).
Setting [9] is: ref 2 (SI: Fioravanti et al., ChemMedChem 2020).
Setting [10] is: ref 3 (SI: Fioravanti et al., J Enzyme Inhib Med Chem 2022).

Where two headings read alike, the source gives them in different places.

In general, IC50 refers to the concentration that inhibits the measured activity by half. Turning to `NC1CC1c1ccc(NC(=O)C2CCCN2C(=O)OCc2ccccc2)cc1` (stereo not drawn) [Compound 10], the “Percentage of reduction of NTS viability, 72 h” value (“Percentage of reduction … 72 h” below) in data set [1] (10 μM) was found to be 32.8 ± 0.9%; in data set [1] (20 μM), 37.5 ± 4.2%. For the same molecule, the half-inhibitory concentration (IC50) in data set [1] was more than 20 µM; in data set [2] (setting [8]), 0.06 ± 0.01 µM.

As a reminder, the viability is a per cent measure of how many cells are alive, often set against a control. In the case of `NC1CC1c1ccc(NC(=O)c2ccc(-c3ccccc3)cc2)cc1` (stereo not drawn) [Compound 2], the IC50 was more than 20 µM in data set [3] (4 h); 16.2 µM in data set [3] (24 h); more than 20 µM in data set [3] (48 h); 5.9 µM in data set [3] (72 h); 0.26 µM in data set [1]; more than 10 µM with adult worms [6]. Moreover, the IC50 in data set [2] (setting [9]) is 0.05 ± 0.01 µM; in the data set on NTS (4 h), more than 20 µM; in the data set with NTS (24 h) it was 5 µM; in the data set with NTS (48 h), 4 µM; with NTS (72 h), 2.3 µM. Further, the Percentage of effect in data set [3] (4 h, 1 μM) came to 20%; in data set [3] (4 h, 10 μM), 23.33%; in data set [3] (4 h, 20 μM), 43.64%; in data set [3] (24 h, 1 μM), 24.14%; in data set [3] (24 h, 10 μM), 37.93%; in data set [3] (24 h, 20 μM), 57.69%. In addition, the Percentage of effect stood at 32.69% in data set [3] (48 h, 1 μM); 36.45% in data set [3] (48 h, 10 μM); 56.25% in data set [3] (48 h, 20 μM); 39% in data set [3] (72 h, 1 μM); 39.11% in data set [3] (72 h, 10 μM); 70.83% in data set [3] (72 h, 20 μM). Also, the Percentage of effect was determined as 30.77% in the data set on NTS (4 h, 10 μM); 38.46% in the data set on NTS (4 h, 20 μM); 78.57% with NTS (24 h, 10 μM); 82.14% with NTS (24 h, 20 μM); 87.76% in the data set with NTS (48 h, 10 μM); 93.88% in the data set on NTS (48 h, 20 μM). The Percentage of effect is recorded as 89.80% with NTS (72 h, 10 μM) and 100% in the data set on NTS (72 h, 20 μM). For the same molecule, the “Percentage of reduction … 72 h” value in data set [1] (0.1 μM) came out at 43.7 ± 2.1%; in data set [1] (1 μM), 56.9 ± 0.9%; in data set [1] (10 μM), 98 ± 1.0%; in data set [1] (20 μM), 100 ± 0.0%. For the same molecule, the results for the viability at 72 h, 5 µM in data set [4] and in data set [5] were 29 ± 2% and 95 ± 9%, respectively. The values for the viability at 72 h, 10 µM in data set [4] and in data set [5] were 26 ± 3% and 82 ± 11%, respectively. The viability at 72 h, 25 µM in data set [4] came out at 13 ± 3%; in data set [5], 87 ± 39%. Besides, the viability at 72 h, 50 µM in data set [4] was found to be 10 ± 2%; in data set [5], 49 ± 9%. Besides, the IC50 at 72 h was determined as 5.9 µM in data set [4] and 68.9 µM in data set [5]. The “eggs' number” value in the data set on adult worms [7] (4 h) was 0; in the data set on adult worms [7] (8 h), 0; in the data set on adult worms [7] (24 h) it was 0; in the data set on adult worms [7] (48 h), 0; in the data set on adult worms [7] (72 h), 6. In addition, in the data set with adult worms [7] (adult worms), the “effect on worm pairing” value is given as “no impact on worm pairing”.

Consider `NC1CC1c1ccc(NC(=O)c2ccc(O)c3ncccc23)cc1` (stereo not drawn) [Compound 1], for which the “Percentage of reduction … 72 h” value in data set [1] (10 μM) is 37.9 ± 0.0%; in data set [1] (20 μM), 45.8 ± 4.2%. The IC50 in data set [1] is more than 20 µM; in data set [2] (ref 1 (SI: Rotili et al., J Med Chem 2014)), less than 1 µM.

As for `NC1CC1c1ccc(NC(=O)C(Cc2csc3ccccc23)NC(=O)OCc2ccccc2)cc1` (stereo not drawn) [Compound 13], the results for the “Percentage of reduction … 72 h” value in data set [1] (10 μM) and in data set [1] (20 μM) were 36.2 ± 0.9% and 50.0 ± 4.2%, respectively. The half-maximal inhibitory concentration (IC50) in data set [1] is more than 10 µM; in data set [2] (setting [9]), 0.08 ± 0.01 µM.

For `CN1CCN(c2cc(C(=O)Nc3ccc(C4CC4N)cc3)ccc2NC(=O)OCc2ccccc2)CC1` (stereo not drawn) [Compound 5], the “Percentage of reduction … 72 h” value is listed as 18.0 ± 1.0% in data set [1] (1 μM), 100 ± 0.0% in data set [1] (10 μM) and 100 ± 0.0% in data set [1] (20 μM). Also, the IC50 in data set [1] was 1.35 µM; in the data set on adult worms [6] it was 2.23 µM; in data set [2] (setting [9]), 0.09 ± 0.01 µM. Also, the viability at 72 h, 5 µM in data set [4] stood at 75 ± 7%; in data set [5], 63 ± 33%. Further, the viability at 72 h, 10 µM in data set [4] was found to be 59 ± 5%; in data set [5], 72 ± 18%. Besides, the viability at 72 h, 25 µM in data set [4] is 58 ± 2%; in data set [5] it was 82 ± 11%. In addition, the viability at 72 h, 50 µM in data set [4] turned out to be 39 ± 4%; in data set [5], 57 ± 10%. Further, the half-inhibitory concentration (IC50) at 72 h in data set [4] came to 24.3 µM; in data set [5], 55.8 µM.

Take `NC1CC1c1ccc(NC(=O)Cc2cccc3ccccc23)cc1` (stereo not drawn) [Compound 8]: the “Percentage of reduction … 72 h” value was 46.5 ± 2.6% in data set [1] (10 μM) and 50.0 ± 0.0% in data set [1] (20 μM). Besides, the IC50 was more than 10 µM in data set [1] and […] in data set [2] (setting [9]).

For the molecule `NC1CC1c1ccc(NC(=O)C(Cc2ccccc2)NC(=O)OCc2ccccc2)cc1` (stereo not drawn) [Compound 11, benzyl (1-((4-(2-aminocyclopropyl)phenyl)amino)-1-oxo-3-phenylpropan-2-yl)carbamate], the IC50 in the data set with adult worms [6] was more than 20 µM.

`NC1CC1c1ccc(NC(=O)c2ccn(C(=O)OCc3ccccc3)c2)cc1` (stereo not drawn) [Compound 6]: the “Percentage of reduction … 72 h” value in data set [1] (10 μM) is recorded as 40.0 ± 2.0%; in data set [1] (20 μM), 100 ± 0.0%. Also, the IC50 in data set [1] is more than 10 µM; with adult worms [6] it was more than 20 µM; in data set [2] (setting [8]) it was 0.05 ± 0.004 µM.

As to `NC1CC1c1ccc(NC(=O)c2ccc(-c3ccsc3)cc2)cc1` (stereo not drawn) [Compound 4], the “Percentage of reduction … 72 h” value in data set [1] (10 μM) stood at 43.1 ± 0.9%; in data set [1] (20 μM), 79.17 ± 0.0%. Moreover, the IC50 in data set [1] is more than 10 µM; with adult worms [6] it was more than 10 µM; in data set [2] (setting [10]), 0.34 ± 0.11 µM.

As to `NC1CC1c1ccc(NC(=O)C(Cc2c[nH]c3ccccc23)NC(=O)OCc2ccccc2)cc1` (stereo not drawn) [Compound 12], the “Percentage of reduction … 72 h” value in data set [1] (10 μM) is given as 41.4 ± 1.7%; in data set [1] (20 μM) it was 50.0 ± 0.0%. Further, the 50% inhibitory concentration (IC50) in data set [1] is more than 10 µM; in data set [2] (setting [9]) it was 0.19 ± 0.03 µM.

In the case of `NC1CC1c1ccc(NC(=O)c2ccc(-c3ccco3)cc2)cc1` (stereo not drawn) [Compound 3], the “Percentage of reduction … 72 h” value in data set [1] (10 μM) is 36.2 ± 0.9%; in data set [1] (20 μM) it was 37.50 ± 0.0%. Also, the IC50 in data set [1] is more than 20 µM; in data set [2] (setting [10]), 2 µM.

In the case of `NC1CC1c1ccc(NC(=O)c2cc3ccccc3n2CC(=O)Nc2ccccc2)cc1` (stereo not drawn) [Compound 7], the “Percentage of reduction … 72 h” value is reported as 37.9 ± 0.0% in data set [1] (10 μM) and 66.7 ± 4.2% in data set [1] (20 μM). For the same molecule, the IC50 was more than 10 µM in data set [1], more than 20 µM in the data set on adult worms [6] and 0.09 ± 0.01 µM in data set [2] (setting [8]).

With `NC1CC1c1ccc(NC(=O)CNC(=O)OCc2ccccc2)cc1` (stereo not drawn) [Compound 9], the “Percentage of reduction … 72 h” value worked out at 37.93 ± 1.7% in data set [1] (10 μM) and 41.7 ± 4.2% in data set [1] (20 μM). Moreover, the results for the IC50 in data set [1] and in data set [2] (setting [8]) were more than 20 µM and 0.3 ± 0.03 µM, respectively.

These data come from paper PMC12340956, “Tranylcypromine-Based LSD1 Inhibitors as Useful Agents to Reduce Viability of” (ACS Infectious Diseases, 2025).
